No end group written: not given here.
Tests used:
protease K [1] = target: T1, protease K (Parengyodontium album, UniProt P06873); assay: in vitro; details: isolated enzyme
protease K [2] = target: T1, protease K
BALB/c mice = details: mouse, in vivo, sc

T1 sequence (P06873 106-384 limits assumed): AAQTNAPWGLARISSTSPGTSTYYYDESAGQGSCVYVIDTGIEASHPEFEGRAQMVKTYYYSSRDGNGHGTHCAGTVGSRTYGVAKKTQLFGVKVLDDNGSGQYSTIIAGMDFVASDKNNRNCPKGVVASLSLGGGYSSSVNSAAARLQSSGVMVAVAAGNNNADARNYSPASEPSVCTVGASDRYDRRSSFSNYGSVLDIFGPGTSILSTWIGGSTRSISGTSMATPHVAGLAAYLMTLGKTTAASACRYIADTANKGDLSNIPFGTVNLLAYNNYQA

Substance: SEFMRNALEEMLRRA-NH2 [RSIpep]
- half-life (protease K [1]): 37.2 ± 1.8 min
- t1/2 with protease K (protease K [2]): less than 1 h
- pathological section analysis of heart, liver, spleen, lung, kidney (BALB/c mice): no discernible pathological alterations

From paper PMC11321638 (Advanced Science, 2024)
